US6492427B2, “Methods for treating multiple sclerosis” (priority 1998, dated 2002)
Like-named read-outs stand apart in the source and are kept apart here.

How the values were obtained:
ASTs = assay: Methylene blue counts of individual cell types: ASTs; type: cell-based, rat; settings: BM-D9, 24 h
Experimental: (§1) Methylene blue (3,7-bis (dimethylamino)-phenothiazin-5-ium chloride), a ribonucleic acid (RNA) binding agent commonly used as an alternative nucleic acid stain, can also be used as a biological staining agent to stain cells in order to observe their morphological features. At 24 h, cells were fixed in 2% paraformaldehyde for 15 min at room temperature. Briefly, cells were washed twice with PBS and 100 μl of 1% methylene blue (Mallinckrodt Chemical Co., MO, USA) solution containing 1% AgNO3 was added for 10 min to the wells containing coverslips. Subsequently, the coverslips were washed with two changes of distilled water and absolute ethanol, cleared with xylene and mounted on slides with permount.
(§2) Cell counts were performed for 25 randomly chosen 100 power fields on each coverslip. Two randomly generated coordinates drawn from a uniform distribution of random numbers specified the center of each field. The random numbers were generated on a computer by using Microcal Origin 4.0 program. […] Three coverslips was counted for each treatment condition. In subsequent experiments, different cell types (for example, O-2A progenitors, PROLs, OLs and astrocytes) were morphologically identified on each field and were counted separately for experimental series-I and II. […]

CA1 hippocampal neurons = settings: cited from earlier work
[1] = system: CA1, CA3 and CA4 hippocampal neurons; settings: 0.25 mg/kg daily, multiple time points up to 14 days (Paterson et al., 1997); cited from earlier work
[2] = pH about 3-5 vs pH about 7; cited from earlier work
oligodendroglial cells [3] = assay: Total counts of intact methylene blue stained cells; type: cell-based, rat; settings: BM-D9 (10^−9 M), 24 h
Experimental: (§3) Cells were trophically withdrawn by replacing the media with a serum free, chemically-defined base media (BM) lacking insulin and IGF-I (Bottenstein et al., 1988). The base media consisited of DMEM supplemented with penicillin (50 IU/ml); streptomycin (50 μg/ml); 1 mM sodium pyruvate; 50 μg/ml transferrin; 0.005 μg/ml sodium selenite; 16 μg/ml putrescine; 0.006 μg/ml progesterone and 0.1 mg/ml bovine serum albumin. All the cells were washed with BM twice before exposing them to individual treatment conditions. Control cells were washed and placed in BM supplemented with 2.5 ng/ml IGF-I and 5 μg/ml insulin to form the insulin media (IM).
To study the effects of trophic-like agents on the survival of oligodendroglial […].
Methylene blue (3,7-bis (dimethylamino)-phenothiazin-5-ium chloride), a ribonucleic acid (RNA) binding agent commonly used as an alternative nucleic acid stain, can also be used as a biological staining agent to stain cells in order to observe their morphological features. […]
Cell counts were performed for 25 randomly chosen 100 power fields on each coverslip. […] Three coverslips was counted for each treatment condition. In subsequent experiments, different cell types (for example, O-2A progenitors, PROLs, OLs and astrocytes) were morphologically identified on each field and were counted separately for experimental series-I and II. […]

oligodendroglial cells [4] = assay: DNA extraction and electrophoresis (DNA ladders); type: cell-based, rat; settings: BM + 10^−9 M, 18 h after washing on 16 DIV
oligodendroglial cells [5] = assay: Nuclear integrity assay: counts of intact nuclei (Zap-oglobin lysis) after insulin and IGF-I withdrawal; type: cell-based, rat; settings: for increase in number of intact nuclei compared to BM: BM + 10^−9 M (BM-D9) vs BM; for number of intact nuclei compared to IM: IM + 10^−9 M (IM-D9)
Experimental: In order to examine insulin and IGF-I dependent survival of the cells of the oligodendroglial lineage, cells were trophically deprived for a period of 24 hours at 16 DIV.
as §3
Cell survival in the cultures was assessed according to the method of (Soto and Sonnenschein, 1985). After washing and treatment in BM, BM-D9, IM and IM-D9 for 24 h, cells were harvested, centrifuged at 500 rpm for 5 min and the supernatant removed. Pelleted cells were then lysed with 200 μl of 10% Zap-oglobin (Coulter Electronics, FL, USA). The lysing agent is a detergent containing solution that lyses the plasma membrane but leaves the nuclei intact. The lysed solution was collected and vortexed. A small volume (10 μl) of the solution was removed and intact nuclei were counted using a haemocytometer. To be counted, nuclei had to show a completely intact smooth outer border. Counts of intact nuclei were pooled for three or four experiments (a total of 15-20 wells were used for each treatment condition). each treatment condition).
OLs at 16 DIV were exposed to the different drug treatment conditions for 24 h, following which, the nuclear integrity assay was performed. On the day of the treatment, the cells growing in Nunc 24 well plates were washed twice with base media. Each treatment well received 50 μl of the appropriate drug solution and the total volume in the well was made up to 500 μl with either BM or IM.
Nuclear counts were obtained from quadruplicate wells per treatment condition and the experiment was repeated twice. OLs were exposed to the following treatment conditions: 1) IM, 2) BM, 3) BM-D9, 4) (−)-Desmethyldeprenyl (BM-Ds9), 5) IM-D9 and 6) IM +10^−9 M (−)-Desmethyldeprenyl (IM-Ds9).
The treatment conditions with the three general cytochrome P450 blockers were: 1) BM+Proadifen (2.5, 10, 25 μM), 2) BM-D9+Proadifen (2.5, 10, 25 μM), 3) BM-Ds9+Proadifen (2.5, 10, 25 μM), 4) BM+Metapyrone (50 μM), 5) BM-D9+Metapyrone (50 μM), 6) BM-Ds9+Metapyrone (50 μM), 7) BM+Piperonyl butoxide (100 μM), 5) BM-D9+Piperonyl butoxide (100 μM), 6) BM-Ds9+Piperonyl butoxide (100 μM).
OLs at 16 DIV were washed twice with base media and exposed either to actinomycin, a transcriptional blocker or cycloheximide, a translational blocker for 24 h. […] Actinomycin and cycloheximide were either used with base media alone or in combination with 10^−9 M (−)-desmethyldeprenyl. Each treatment well received 50 μl of the drug solution and the total volume of the well was made up to 500 μl with base media.
Counts of intact nuclei, obtained from quadruplicate wells per treatment condition were used to quantitate the effects of the transcriptional and translational blockers. Each experiment was repeated twice for experimental density series-II.

OLs = assay: Methylene blue counts of individual cell types: OLs; type: cell-based, rat; settings: BM-D9, 24 h
Experimental: as §1, §2

[6] = system: MBP, PLP, GC and CNPase-I; assay: Western blot of PROL and OL marker proteins; type: cell-based, rat; settings: BM + 10^−9 M, 18 h

## C#CCN(C)[C@H](C)Cc1ccccc1 [(−)-deprenyl, R-(−)-N,α-Dimethyl-N-2-propynyl phenethylamine]
ASTs; experimental series II
  AST cell numbers compared to those in BM: 132%
ASTs; experimental series-I
  AST cell numbers compared to those in BM: 570%
CA1 hippocampal neurons; 0.25 mg/kg, days 3 or 7 (Lahtinen et al., 1997)
  CA1 hippocampal neuronal survival: significant increase in survival at both time points
CA1 hippocampal neurons; 10 mg/kg daily from 1-2 hours after 5 minutes occlusion, day 4 (Ballabriga et al., 1997)
  CA1 hippocampal neuronal survival: no increase in survival
[1]
  CA1, CA3 and CA4 hippocampal neuronal survival: markedly significant increases in neuronal survival
[2]
  stability depending on pH of the medium: more stable at a pH in the range of about 3-5 than at a pH of about 7
Oligodendroglial cells [3]; experimental series-I
  number of intact methylene blue stained cells, % of those in BM: 576%
Oligodendroglial cells [3]; experimental series-II
  number of intact methylene blue stained cells, % of those in BM: 255%
Oligodendroglial cells [4]
  DNA laddering on electrophoresis gels: did not show detectable laddering
Oligodendroglial cells [5]; 24 h, experimental series-I
  increase in number of intact nuclei compared to BM: 217%
  number of intact nuclei compared to IM: 135.6%
Oligodendroglial cells [5]; 24 h, experimental series-II (15.8×10^3 cell/mm^2)
  increase in number of intact nuclei compared to BM: 164%
Oligodendroglial cells [5]; BM + 10^−9 M (BM-D9), 24 h, experimental series-I (5.3×10^3 cell/mm^2)
  numbers of intact nuclei, % of those in IM: 119%
Oligodendroglial cells [5]; BM + 10^−9 M, 24 h, metabolite experiments (FIG. 11)
  increase in counts of intact nuclei compared to those for BM: 194%
Oligodendroglial cells [5]; BM with 10^−5, 10^−7 and 10^−9 M, 24 h
  concentration-survival relationship, numbers of intact nuclei: graded increase in the numbers of intact nuclei with the greatest increase for 10^−9 M
Oligodendroglial cells [5]; 24 h, experimental series-II
  number of intact nuclei compared to IM: 102.4%
Oligodendroglial cells [5]; OL cell survival, relative to control (IM)
  Survival (24 h): ++++
OLs; experimental series II
  OL cell numbers compared to those in BM: 291%
OLs; experimental series-I
  OL cell numbers compared to those in BM: 565.0%
[6]
  band densities for MBP, CNP-ase I and PLP compared to IM: exceed those for IM
  immunodensity of marker proteins (MBP, PLP, GC, CNPase-I) compared to BM: marked increase in immunodensity compared to BM
